We go through one compound from patent US12616759B2, “Uses of labeled HSP90 inhibitors” (Sloan-Kettering Institute for Cancer Research, priority 2011, dated 2026).

A short description of data set [1]: PU-H71 tumor concentration predicted from [^124I]-PU-H71 PET (equation 1a, simulations). The settings on record: mouse, tumor (MDA-MB-468), 75 mg/kg.
Another data set has as its system MDA-MB-468 tumors. Described as above.
Another data set deals with caspase-3,7. Put plainly: caspase 3,7 activation assay. It is filed as cell-based. The method, then:
Caspase 3,7 Activation Assay: Cells were plated and treated as described in the growth inhibition assay section. Following a 24 h or 48 h exposure of cells to Hsp90 inhibitors, 100 μL buffer containing 10 mM Hepes, pH 7.5, 2 mM EDTA, 0.1% CHAPS, 0.1 mg/mL PMSF, Complete Protease Inhibitor mix (#1697498; Roche), and the caspase substrate Z-DEVD-R110 (#R22120; Molecular Probes) at 25 μM was added to each well. Plates were placed on an orbital shaker to promote cell lysis and reaction. The fluorescence signal of each well was measured in an Analyst GT (Molecular Dev ices) microplate reader (excitation 485 nm; emission at 530 nm). The percentage increase in caspase-3,7 activity was calculated by comparison of the fluorescence reading obtained from treated versus control cells. All experimental data were analyzed using SOFTmax Pro 4.3.1 and plotted using Prism 4.0 (Graphpad Software Inc., San Diego, CA).

Data set [2] relates to FL5.12 mAKT-transfected cells. Put plainly: apoptosis in mAKT-transfected FL5.12 cells. The data set is classed as cell-based. From the text:
FL5.12 was derived as an interleukin-3 (IL-3)-dependent cell line with a functional JAK/STAT pathway and it has characteristic features of an early lymphocytic progenitor. Both the parental cells and the transfected cells express moderate-levels of active AKT and STAT5, as evidenced by AKT phosphorylation on Ser473 and STAT5 phosphorylation on Tyr694, respectively. The level of p-STAT5 but not p-AKT is dependent on the presence of IL-3. Introduction of a constitutively activated, myristoylated form of AKT (mAKT) under the control of a doxycycline (DOX)-inducible promoter further allows for the regulation of p-AKT levels in these cells. All together, these cells are a good isogenic model to evaluate the dependence of HSP90 inhibitor apoptotic sensitivity on activated AKT and STAT5-pathways.
Cells: Kasumi-1, SKNO-1, MOLM-13, MO-91, HEL, HL-60, THP-1, MV4-11 were grown in RPMI media supplemented with 10 mM HEPES, 4.5 g/L glucose, 1.5 g/L sodium bicarbonate, 1 mM sodium pyruvate, 10% FBS, and 1% penicillin/streptomycin. The stable transfectants of FL5.12 were previously described (18-Karnauskas 2003). In brief, for the generation of FL5.mAKT the myristylated AKT was cloned in the doxycycline inducible vector pRevTRE (Clontech) (this clone is designated mAKT). As a control, cell were transfected with vector alone (this clone is designated Vector). For generation of FL5.mAkt.Bcl-xL, the human Bcl-xL cDNA was cloned into the EcoRI site of the pBabePuro vector, and transfected into FL5.mAkt3 as described (18) (this clone is designated mAKT.Bcl-xL). These lines were cultured as described previously using DME-HG media supplemented with 10 mM HEPES, 10% FBS media containing 1 mg/ml Geneticin (G418) (Sigma #G9516) and 1 or 2 ng/mL of IL-3 (RD Systems #403 ML).
(§1) Apoptosis Assay: Cells were treated for 24, 48 or 72 h with vehicle (DMSO) or inhibitors as indicated. Following staining with Acridine Orange and Ethidium Bromide (1:1 mix of 100 µg/ml), cells were visualized with a fluorescent microscope (Zeiss Axiovert 40 CFL) and counted. Percentage of apoptotic cells was determined from 200-300 cells counted in each group. The percentage of apoptotic cells was calculated as: % Apoptotic cells=(total number of cells with apoptotic nuclei/total number of cells counted)×100.
Western blot: Cells were grown to 60-70% confluence and treated with inhibitor or vehicle for the indicated times. Protein lysates were prepared in 50 mM Tris pH 7.4, 150 mM NaCl and 1% NP-40 lysis buffer. Protein concentrations were measured using the BCA kit (Pierce) according to the manufacturer's instructions. Protein lysates (10-100 μg) were resolved by SDS-PAGE, transferred onto nitrocellulose membrane and incubated with the indicated primary antibodies. […]

Data set [3] is described as follows: PU-H71 tumor concentration by LC-MS/MS. It is filed as in vivo, mice. The settings on record: mouse, tumor (MDA-MB-468), read-out: actual tumor concentration by LC-MS/MS; for concentration at 24 h: 24 h after last dose. From the text:
LC-MS/MS analyses. […] Samples were reconstituted in mobile phase.

The next data set deals with AML cell lines. The data set can be described thus: apoptosis in AML cell lines, acridine orange/ethidium bromide. The data set is classed as cell-based, human. The procedure: as §1
The test system of the next data set is HSP90. The data set can be described thus: fluorescence polarization HSP90 binding assay using SKBr3 cancer cell lysate. A general note: Fluorescence polarisation rises when a labelled molecule tumbles more slowly, as on binding a larger partner.
A further data set relates to MO-91 tumors. The data set can be described thus: pharmacodynamic study in MO-91 xenografted tumors. The data set is classed as in vivo, mice. The settings on record: post-administration of one dose. The procedure:
Pharmacodynamic Study: Four- to 6-week-old nu/nu athymic female mice were obtained from Taconic Farms. Experiments were carried out under an Institutional Animal Care and Use Committee-approved protocol, and institutional guidelines for the proper and humane use of animals in research were followed. HEL and MO-91 cells were subcutaneously implanted in the right flank of mice using a 20-gauge needle and allowed to grow. Before administration, a solution of PU-H71-HCl was formulated in sterile PBS. For this assay, tumors were allowed to reach 6-8 mm in diameter before treatment. […] Tumors were homogenized and proteins analyzed by western blot as described above.

As for `CC(C)NCCCn1c(Sc2cc3c(cc2I)OCO3)nc2c(N)ncnc21` [PU-H71], the results for the concentration at 24 h in data set [1], in data set [3] (5 mg/kg 3×week) and in data set [3] (75 mg/kg 1×week) were 5.51 µM, 0.52 ± 0.13 µM and 5.53 ± 0.26 µM, respectively. Further, the concentration at 72 h in data set [1] was 2.18 ± 1.78 µM. Besides, the concentration at 96 h was 2.18 µM in data set [1] and 3.09 ± 1.4 µM in data set [3] (75 mg/kg 1×week, 96 h after last dose). Besides, in the data set on MDA-MB-468 tumors (1 mg/kg, 48 h and beyond), the “tumor concentration of PU-H71” value is listed as “less than 0.05 μM”. For the same compound, in the data set on MDA-MB-468 tumors (5 mg/kg 3×week, 24 h after last dose), the “simulated tumor concentration at the time of sacrifice” value was 0.43 µM. The “[PU-H71tumor]avg” value in the data set with MDA-MB-468 tumors (75 mg/kg, 1×week) was 2.88 µM; in the data set with MDA-MB-468 tumors (75 mg/kg, 2×week) it was 5.41 µM; in the data set with MDA-MB-468 tumors (75 mg/kg, 3×week) it was 7.45 µM. For the same compound, in the data set on MDA-MB-468 tumors (75 mg/kg, 24 h), the “tumor concentration from PET or biodistribution studies” value is 5.51 ± 1.78 µM. Also, the “increase in caspase-3,7 activation” value in the data set on caspase-3,7 (Kasumi-1 and SKNO-1, 24 h) is recorded as “two-fold”; with caspase-3,7 (MOLM-13 and MO-91, 24 h) it was “ten-fold”. Further, the apoptotic cells in data set [2] (p-AKT increased by Dox) was 50%; in data set [2] (without Dox), […]. The cells undergoing apoptosis in the data set on AML cell lines (HEL, 72 h) is 30%; in the data set on AML cell lines (MOLM-13 and MO-91, 72 h), ~100%; in the data set on AML cell lines (SKNO-1 and Kasumi-1, 72 h), 50-60%. Also, the midpoint of the response with HSP90 (fluorescence polarization), the EC50, lay at […]. In the data set on HSP90 (read-out: IC50, affinity for HSP90), the IC50 (as a rule, the concentration that gives 50% inhibition) turned out to be […]. In addition, the “duration of apoptosis after one dose” value in the data set with MO-91 tumors was found to be […].
